# Results published in ChEMBL document CHEMBL6134874, “Identification of Nitric Oxide Donating Dasatinib Derivatives with Intraocular Pressure Lowering and Senolytic Activities” (J Med Chem, 2025).
# pIC50: −log10 of the molar value. Activity calls are given as the source filed them. No cut-off for these calls is given here.
# Key:
# [1] = Inhibition of senescence in mouse MEF cells measured after 72 hrs by CCK-8 method; assay type: functional, cell-based
# [2] = Antiproliferative activity against mouse MEF cells assessed as inhibition of cell proliferation measured after 72 hrs by CCK-8 method; assay type: functional, cell-based
# [3] = Senolytics index ratio of IC50 for antiproliferative activity against mouse MEF cells to IC50 for inhibition of senescence in mouse MEF cells; assay type: functional
# Mus musculus [4] = assay: Neuroprotective activity against magnetic microbead-induced ocular hypertensive COHT C57BL/6J mouse model assessed as protection effect on retinal ganglion cells (RGC) at 10 mM administered eye drop thrice a day for 10 days; assay type: functional, organism-based; details: time 10.0 day
# Mus musculus [5] = assay: (§1) Anti-glaucoma activity against magnetic microbead-induced ocular hypertensive COHT C57BL/6J mouse model assessed as reduction in fraction of SA-beta-Gal positive area in retina at 10 mM administered eye drop thrice a day for 10 days by SA-beta Gal staining based […]; assay type: functional, organism-based; details: time 10.0 day
# Mus musculus [6] = assay: Neuroprotective activity against magnetic microbead-induced ocular hypertensive COHT C57BL/6J mouse model assessed as increase in retinal ganglion cells (RGC) survival at 10 mM administered eye drop thrice a day for 10 days by immunofluorescence staining based analysis; assay type: functional, organism-based; details: time 10.0 day
# HTM [7] = assay: Upregulation of cGMP level in HTM cells at 5 uM incubated for 24 hrs by ELISA method; assay type: functional, cell-based; details: Homo sapiens
# Mus musculus [8] = assay: Anti-glaucoma activity against magnetic microbead-induced ocular hypertensive COHT C57BL/6J mouse model assessed as reduction in intraocular pressure administered as 10 mM eye drop measured after 8 hrs; assay type: functional, organism-based
# Mus musculus [9] = assay: Neuroprotective activity against magnetic microbead-induced ocular hypertensive COHT C57BL/6J mouse model assessed as improvement in N1 wave amplitude at 10 mM administered eye drop thrice a day for 10 days […]; assay type: functional, organism-based; details: time 10.0 day
# HTM [10] = assay: Anti-glaucoma activity in BLEO-induced senescence in HTM cells assessed as decrease in proportion of SA-beta-Gal positive cells at 5 uM measured for 48 hrs by senescence-associated galactosidase staining based microscopic analysis; assay type: functional, cell-based; details: Homo sapiens
# Mus musculus [11] = assay: Anti-glaucoma activity against magnetic microbead-induced ocular hypertensive COHT C57BL/6J mouse model assessed as reduction in intraocular pressure administered as 10 mM eye drop measured after 2 to 4 hrs; assay type: functional, organism-based; details: time 2-4 hrs
# HTM [12] = assay: Upregulation of NO level in HTM cells at 5 uM incubated for 12 hrs by DAF-FM DA fluorescent probe based flow cytometry analysis; assay type: functional, cell-based; details: Homo sapiens
# Mus musculus [13] = assay: Neuroprotective activity against magnetic microbead-induced ocular hypertensive COHT C57BL/6J mouse model assessed as improvement in peak time of N1 wave at 10 mM administered eye drop thrice a day for 10 days […]; assay type: functional, organism-based; details: time 10.0 day
# Mus musculus [14] = assay: Neuroprotective activity against magnetic microbead-induced ocular hypertensive COHT C57BL/6J mouse model assessed as improvement in visual acuity of mouse at 10 mM administered eye drop thrice a day for 10 days by Optokinetic Reflex Assay; assay type: functional, organism-based; details: time 10.0 day
# Mus musculus [15] = assay: as §1, with “in number” for “in fraction”, “of SA-betaGal” for “of SA-beta-Gal”, “positive cells per unit” for “positive”, “area of whole flat-mount” for “area in”; assay type: functional, organism-based; details: time 10.0 day
# Mus musculus [16] = assay: Anti-glaucoma activity against magnetic microbead-induced ocular hypertensive COHT C57BL/6J mouse model assessed as intraocular pressure lowering efficacy administered as 10 mM eye drop measured after 4 hrs; assay type: functional
# [17] = Toxicity in C57BL/6J mouse assessed as effect on discernible conjunctival hyperemia administered as 10 mM eye drop measured up to 4 hrs; details: in vivo, topical_or_ocular, 10000 µM
# Mus musculus [18] = assay: Anti-glaucoma activity against magnetic microbead-induced ocular hypertensive COHT C57BL/6J mouse model assessed as reduction in intraocular pressure administered as 10 mM eye drop measured after 2 to 8 hrs; assay type: functional, organism-based; details: time 2-8 hrs
SMILES,"pIC50 ([1]; Mus musculus, MEF, 72 h)","pIC50 ([2]; Mus musculus, MEF, 72 h)",Ratio IC50 [3],other results
Cc1nc(Nc2ncc(C(=O)Nc3c(C)cccc3Cl)s2)cc(N2CCN(CCOC(=O)CCC(=O)OCCOCCOc3no[n+]([O-])c3S(=O)(=O)c3ccccc3)CC2)n1 [listing 1 of 2 here],6.32,5.96,2.28,–
Cc1nc(Nc2ncc(C(=O)Nc3c(C)cccc3Cl)s2)cc(N2CCN(CCOC(=O)CCC(=O)O[C@@H]3CO[C@H]4[C@@H]3OC[C@@H]4O[N+](=O)[O-])CC2)n1,6.27,6.48,0.61,–
Cc1nc(Nc2ncc(C(=O)Nc3c(C)cccc3Cl)s2)cc(N2CCN(CCOC(=O)CCC(=O)OCCCCOc3no[n+]([O-])c3S(=O)(=O)c3ccccc3)CC2)n1,5.91,5.63,1.9,–
Cc1nc(Nc2ncc(C(=O)Nc3c(C)cccc3Cl)s2)cc(N2CCN(CCOC(=O)CCC(=O)OCCOc3no[n+]([O-])c3C)CC2)n1,6.31,5.87,2.73,–
Cc1nc(Nc2ncc(C(=O)Nc3c(C)cccc3Cl)s2)cc(N2CCN(CCOC(=O)COc3no[n+]([O-])c3C)CC2)n1,6.28,5.89,2.45,–
Cc1nc(Nc2ncc(C(=O)Nc3c(C)cccc3Cl)s2)cc(N2CCN(CCOC(=O)CCC(=O)OCCOCCOc3no[n+]([O-])c3S(=O)(=O)c3ccccc3)CC2)n1 [listing 2 of 2 here],–,–,–,Activity (Mus musculus [4]): Active; Compound Showed Significant Effect Than Dasatinib; Activity (Mus musculus [5]): Active; Activity (Mus musculus [6]): Active; Compound Showed More Pronounced Effect Then Dasatinib; Activity (HTM [7]): Active; Activity (Mus musculus [8]): inactive; Activity (Mus musculus [9]): Active; Activity (HTM [10]): Active; Activity (Mus musculus [11]): Active; Activity (HTM [12]): Active; Activity (Mus musculus [13]): Active; Activity (Mus musculus [14]): Active; Activity (Mus musculus [15]): Active
Cc1nc(Nc2ncc(C(=O)Nc3c(C)cccc3Cl)s2)cc(N2CCN(CCOC(=O)CCC(=O)OCCCCCO[N+](=O)[O-])CC2)n1,5.48,5.88,0.4,–
Cc1nc(Nc2ncc(C(=O)Nc3c(C)cccc3Cl)s2)cc(N2CCN(CCOC(=O)CCC(=O)OCCO[N+](=O)[O-])CC2)n1,6.39,5.76,4.3,–
CS(=O)(=O)O.CS(=O)(=O)O.CS(=O)(=O)O.Cc1nc(Nc2ncc(C(=O)Nc3c(C)cccc3Cl)s2)cc(N2CCN(CCOC(=O)CCC(=O)OCCOCCOc3no[n+]([O-])c3S(=O)(=O)c3ccccc3)CC2)n1,–,–,3.25,Activity (Mus musculus [16]): 3.6 mmHg; pIC50 ([1]; mef): 6.42; Activity [17]: Non-toxic; pIC50 ([2]; mef): 5.91
Cc1nc(Nc2ncc(C(=O)Nc3c(C)cccc3Cl)s2)cc(N2CCN(CCO[N+](=O)[O-])CC2)n1,5.92,5.82,1.29,Activity (HTM [12]): Active
CS(=O)(=O)O.CS(=O)(=O)O.CS(=O)(=O)O.Cc1nc(Nc2ncc(C(=O)Nc3c(C)cccc3Cl)s2)cc(N2CCN(CCOC(=O)CCC(=O)OCCCCOc3no[n+]([O-])c3S(=O)(=O)c3ccccc3)CC2)n1,–,–,1.76,pIC50 ([1]; mef): 6.12; pIC50 ([2]; mef): 5.88
Cc1nc(Nc2ncc(C(=O)Nc3c(C)cccc3Cl)s2)cc(N2CCN(CCOC(=O)CCC(=O)OCCCO[N+](=O)[O-])CC2)n1,6.35,5.85,3.13,–
Cc1nc(Nc2ncc(C(=O)Nc3c(C)cccc3Cl)s2)cc(N2CCN(CCOC(=O)CCC(=O)OCCCCO[N+](=O)[O-])CC2)n1,5.97,5.75,1.67,–
Cc1nc(Nc2ncc(C(=O)Nc3c(C)cccc3Cl)s2)cc(N2CCN(CCO)CC2)n1 [DASATINIB ANHYDROUS],6.29,5.55,5.55,Activity (Mus musculus [4]): Active; Activity (Mus musculus [18]): inactive; Activity (Mus musculus [5]): Active; Activity (Mus musculus [6]): Active; Activity (Mus musculus [9]): Active; Activity (HTM [10]): Active; Activity [17]: Non-toxic; Activity (Mus musculus [13]): Active; Activity (Mus musculus [14]): inactive; Activity (Mus musculus [15]): Active
